Where two headings read alike, the source gives them in different places.
What was measured:
HIV-1 (H9/IIIB strain) = test: microbe, parasite or virus in culture; format: cell-based
Experimental: Assessing Antiviral Potency in a Multiple Round HIV-1 Infection Assay (Viking Assay)
The antiviral activity of the tenofovir prodrugs of the Examples herein was assessed in an assay that measures the rate of replication of HIV in cell culture, termed the Viking assay (Viral KINetics in Green cells) and performed as follows. HIV-1 replication was monitored using MT4-gag-GFP clone D3 (hereafter designated MT4-GFP), which are MT-4 cells modified to harbor a GFP reporter gene, the expression of which is dependent on the HIV-1 expressed proteins tat and rev. Productive infection of an MT4-GFP cell with HIV-1 results in GFP expression approximately 24 h post-infection. MT4-GFP cells were maintained at 37° C./5% CO2/90% relative humidity in RPMI 1640 supplemented with 10% fetal bovine serum, 100 U/ml penicillin/streptomycin, and 400 μg/ml G418 to maintain the reporter gene. For infections, MT4-GFP cells were placed in the same medium lacking G418 and infected overnight with HIV-1 (H9/IIIB strain) virus at an approximate multiplicity of infection of 0.01 in the same incubation conditions. Cells were then washed and re-suspended in either RPMI 1640 supplemented with 10% or 50% normal human serum (NHS) at 1.6×10^5 cells/mL (10% NHS or 50% NHS, respectively). Compound plates were prepared by dispensing compounds dissolved in DMSO into wells of 384 well poly-D-lysine-coated plates (0.2 μl/well) using an ECHO acoustic dispenser. Each compound was tested in a 10-point serial 3-fold dilution (typical final concentrations: 8.4 μM-0.42 nM). Controls included no inhibitor (DMSO only) and a combination of three antiviral agents (efavirenz, indinavir, an in-house integrase strand transfer inhibitor at final concentrations of 4 μM each). Cells were added ([…]) to compound plates and the infected cells were maintained at 37° C./5% CO2/90% relative humidity.
Infected cells were quantified at two time points, ˜48 h and ˜72 h post-infection, by counting the number of green cells in each well using an Acumen eX3 scanner. […] Inhibition of R0 is calculated for each well, and IC50s determined by non-linear 4-parameter curve fitting.

[1] = Prodrug stability assay in bio-relevant media (FaSSIF with pancreatin; GI tract stability); format: in vitro ADME; details: parent prodrug area at 5 h divided by area at 0 h; 37° C.; 0.5 mg/mL pancreatin in FaSSIF
Experimental: Prodrug Stability Assay in Bio-Relevant Media
The following assay was employed to evaluate the stability of the prodrugs in simulated gastrointestinal tract conditions. Preparation of fasted state simulated intestinal fluid (FaSSIF) using Phares SIF Powder was carried out according to protocols from Phare Drug Delivery AG (Baselland, Switzerland). For sample preparation, 10 μL stock solutions (10 mM) of prodrug substance in DMSO was added to 990 μL of 0.5 mg/mL Pancreatin solution (Fisher CAS#8049-47-6) in FaSSIF. Two samples were prepared for each compound at initial. If the sample was clear solution at the beginning, ran one sample directly as initial by HPLC; if the sample was not clear at starting, diluted the sample by 100% ACN. Put the other sample under 37° C. and observed the sample at 5 h time-point. At 5 h time point, if the sample was clear solution then performed HPLC analysis directly; if it was not clear solution, diluted the sample by 100% ACN and assayed by HPLC. All the samples were vortexed for 3 min and observed before injection. For the diluted samples, the area will be multiplied by a factor when data analysis. The analysis was carried out with an Agilent 1100 series HPLC with autosampler. The column was usually a Poroshell 120 EC-C18, 4.6×50 mm, 2.7 μm. The flow rate was 1.8 mL/min, and the injection volume was 5 or 10 μL. UV detection was in the range 210-400 nm. The mobile phase consisted of solvent A (water plus 10 mM tetrabutylammonium bromide) and solvent B (acetonitrile) with a gradient of 90% solvent A at 0 min changing to 95% solvent B over 6 min, maintained for 1.5 min, then reverting to 90% solvent A over 1.6 min. The area of the parent in prodrug at 5 h time point was divided by the area of the parent in prodrug at 0 h time point, to generate the % claimed parent ratio, which are summarized in Table 5 for GI Tract stability.

[2] = 10% normal human serum, MT4-GFP cells infected with HIV-1 H9/IIIB, inhibition of reproductive ratio R0, read-out: Viking, IC50 (10% NHS)
[3] = 50% normal human serum, MT4-GFP cells infected with HIV-1 H9/IIIB, inhibition of reproductive ratio R0, read-out: Viking, IC50 (50% NHS)
[4] = Human immunodeficiency virus 1, IIIB, 10% normal human serum, MT4-GFP cells infected with HIV-1 H9/IIIB, inhibition of reproductive ratio R0, read-out: Viking, IC50 (10% NHS)
[5] = Human immunodeficiency virus 1, IIIB, 50% normal human serum, MT4-GFP cells infected with HIV-1 H9/IIIB, inhibition of reproductive ratio R0, read-out: Viking, IC50 (50% NHS)
[6] = Human immunodeficiency virus 1, 10% normal human serum, MT4-GFP cells infected with HIV-1 H9/IIIB, inhibition of reproductive ratio R0, read-out: Viking, IC50 (10% NHS)
[7] = Human immunodeficiency virus 1, 50% normal human serum, MT4-GFP cells infected with HIV-1 H9/IIIB, inhibition of reproductive ratio R0, read-out: Viking, IC50 (50% NHS)

| SMILES | IC50 (HIV-1 (H9/IIIB strain); [2]) | IC50 (HIV-1 (H9/IIIB strain); [3]) | IC50 (HIV-1 (H9/IIIB strain); [4]) | IC50 (HIV-1 (H9/IIIB strain); [5]) | further results |
| --- | --- | --- | --- | --- | --- |
| CC(C)OC(=O)C[C@H](C)NP(=O)(CO[C@H](C)Cn1cnc2c(N)ncnc21)N[C@H](C)C(=O)OC1CCC1 (single isomer, unassigned) [Example 19B] | 3.79 µM | > 8.4 µM | – | – | – |
| CC(C)COC(=O)[C@H](C)NP(=O)(CO[C@H](C)Cn1cnc2c(N)ncnc21)NC[C@H](C)C(=O)OC(C)C (single isomer, unassigned) [Example 14A] | – | – | 0.0166 µM | 0.0702 µM | GI Tract stability [1]: 38.3% |
| CCCCCOC(=O)C(C)(C)N[P@@](=O)(CO[C@H](C)Cn1cnc2c(N)ncnc21)N[C@@H](CC(=O)OC(C)C)C(C)C [Example 24B] | – | – | – | – | IC50 (HIV-1 (H9/IIIB strain); [6]): 0.0289 µM; IC50 (HIV-1 (H9/IIIB strain); [7]): 0.17 µM |
| CCCCCCOC(=O)C(C)(C)NP(=O)(CO[C@H](C)Cn1cnc2c(N)ncnc21)N[C@@H](CC(=O)OC(C)C)C(C)C (single isomer, unassigned) [Example 28A] | 0.0191 µM | 0.0585 µM | – | – | – |
| CC(C)OC(=O)CCNP(=O)(CO[C@H](C)Cn1cnc2c(N)ncnc21)NCCC(=O)OC(C)C [Example 1, 1-methylethyl 8-{[(1R)-2-(6-amino-9H-purin-9-yl)-1-methylethoxy]methyl}-2-methyl-4-oxo-3-oxa-7,9-diaza-8-phosphadodecan-12-oate 8-oxide] | – | – | – | – | IC50 (HIV-1 (H9/IIIB strain); Human immunodeficiency virus 1, IIIB, read-out: Viking, IC50 (10% NHS)): > 8.4 µM; IC50 (HIV-1 (H9/IIIB strain); Human immunodeficiency virus 1, IIIB, read-out: Viking, IC50 (50% NHS)): > 8.4 µM |
| CC(C)OC(=O)C[C@H](C)NP(=O)(CO[C@H](C)Cn1cnc2c(N)ncnc21)N[C@@H](C)CC(=O)OC(C)C [Example 5, 1-methylethyl (6S,10S)-8-{[(1R)-2-(6-amino-9H-purin-9-yl)-1-methylethoxy]methyl}-2,6,10-trimethyl-4-oxo-3-oxa-7,9-diaza-8-phosphadodecan-12-oate 8-oxide] | – | – | > 8.4 µM | > 8.4 µM | – |
| CC(C)OC(=O)C[C@@H](C)NP(=O)(CO[C@H](C)Cn1cnc2c(N)ncnc21)N[C@@H](C)C(=O)OC(C)C (single isomer, unassigned) [Example 9B] | 0.378 µM | 0.8 µM | – | – | – |
| CC(C)OC(=O)CCNP(=O)(CO[C@H](C)Cn1cnc2c(N)ncnc21)N[C@H](C)C(=O)OC1CCC1 (single isomer, unassigned) [Example 23A] | > 8.4 µM | > 8.4 µM | – | – | – |
| CCCCCOC(=O)C(C)(C)NP(=O)(CO[C@H](C)Cn1cnc2c(N)ncnc21)N[C@@H](C)CC(=O)OC(C)C (single isomer, unassigned) [Example 26A] | 0.0233 µM | 0.116 µM | – | – | – |
| CC(C)OC(=O)[C@@H](C)CNP(=O)(CO[C@H](C)Cn1cnc2c(N)ncnc21)N[C@H](C)C(=O)OC1CCC1 (single isomer, unassigned) [Example 20A] | 0.859 µM | 4.11 µM | – | – | – |
| CC(C)OC(=O)CCNP(=O)(CO[C@H](C)Cn1cnc2c(N)ncnc21)N[C@@H](C)C(=O)OC(C)C (single isomer, unassigned) [Example 7B] | – | – | – | – | IC50 (HIV-1 (H9/IIIB strain); [6]): 0.378 µM; IC50 (HIV-1 (H9/IIIB strain); [7]): 0.393 µM |
| CC(C)OC(=O)[C@@H](C)CNP(=O)(CO[C@H](C)Cn1cnc2c(N)ncnc21)N[C@H](C)C(=O)OC1CCCCC1 (single isomer, unassigned) [Example 21A] | 1.46 µM | – | – | – | – |
| CC(C)OC(=O)[C@H](C)CNP(=O)(CO[C@H](C)Cn1cnc2c(N)ncnc21)N[C@@H](C)C(=O)OC(C)C (single isomer, unassigned) [Example 10B] | 0.435 µM | 0.908 µM | – | – | – |
| CC(C)OC(=O)[C@H](C)CNP(=O)(CO[C@H](C)Cn1cnc2c(N)ncnc21)NC[C@@H](C)C(=O)OC(C)C [Example 4, 1-methylethyl (5R,11R)-8-{[(1R)-2-(6-amino-9H-purin-9-yl)-1-methylethoxy]methyl}-2,5,11-trimethyl-4-oxo-3-oxa-7,9-diaza-8-phosphadodecan-12-oate 8-oxide] | – | – | 6.46 µM | > 8.4 µM | – |
| CC(C)OC(=O)[C@@H](C)CNP(=O)(CO[C@H](C)Cn1cnc2c(N)ncnc21)N[C@H](C)C(=O)OC1CCCCC1 (single isomer, unassigned) [Example 21B] | 0.27 µM | 0.836 µM | – | – | – |
| CC(C)OC(=O)[C@@H](C)CNP(=O)(CO[C@H](C)Cn1cnc2c(N)ncnc21)N[C@@H](C)C(=O)OC1CCCC1 (single isomer, unassigned) [Example 11A] | – | – | 0.0215 µM | 0.104 µM | – |
| CC(C)OC(=O)[C@@H](C)CNP(=O)(CO[C@H](C)Cn1cnc2c(N)ncnc21)N[C@H](C)C(=O)OC1CCCC1 (single isomer, unassigned) [Example 22A] | 0.4 µM | – | – | 0.48 µM | – |
| CC(C)OC(=O)[C@@H](C)CNP(=O)(CO[C@H](C)Cn1cnc2c(N)ncnc21)NC[C@H](C)C(=O)OC(C)C [Example 3, 1-methylethyl (5S,11S)-8-{[(1R)-2-(6-amino-9H-purin-9-yl)-1-methylethoxy]methyl}-2,5,11-trimethyl-4-oxo-3-oxa-7,9-diaza-8-phosphadodecan-12-oate 8-oxide] | – | – | 7.34 µM | > 8.4 µM | – |
| CC(C)OC(=O)C[C@H](C)NP(=O)(CO[C@H](C)Cn1cnc2c(N)ncnc21)N[C@@H](C)C(=O)OC(C)C (single isomer, unassigned) [Example 8B] | 0.439 µM | 0.531 µM | – | – | – |
| CC(C)OC(=O)[C@H](C)NP(=O)(CO[C@H](C)Cn1cnc2c(N)ncnc21)NC[C@H](C)C(=O)OC(C)C (some centres unmarked) [Example 6B] | – | – | – | – | IC50 (HIV-1 (H9/IIIB strain); [6]): 0.258 µM; IC50 (HIV-1 (H9/IIIB strain); [7]): 0.494 µM |
| CC(C)OC(=O)[C@@H](C)CNP(=O)(CO[C@H](C)Cn1cnc2c(N)ncnc21)N[C@@H](C)C(=O)OC1CCC1 (single isomer, unassigned) [Example 12A] | – | – | 0.0417 µM | 0.119 µM | – |
| CCCCOC(=O)[C@H](C)NP(=O)(CO[C@H](C)Cn1cnc2c(N)ncnc21)NC[C@H](C)C(=O)OC(C)C (single isomer, unassigned) [Example 15A] | – | – | 0.0196 µM | 0.146 µM | – |
| CC(C)OC(=O)C[C@@H](C)NP(=O)(CO[C@H](C)Cn1cnc2c(N)ncnc21)N[C@H](C)CC(=O)OC(C)C [Example 2, 1-methylethyl (6R,10R)-8-{[(1R)-2-(6-amino-9H-purin-9-yl)-1-methylethoxy]methyl}-2,6,10-trimethyl-4-oxo-3-oxa-7,9-diaza-8-phosphadodecan-12-oate 8-oxide] | – | – | > 8.4 µM | > 8.4 µM | – |
| CC(C)OC(=O)C[C@@H](C)NP(=O)(CO[C@H](C)Cn1cnc2c(N)ncnc21)N[C@H](C)C(=O)OC1CCC1 (some centres unmarked) [Example 18B] | – | – | – | – | IC50 (HIV-1 (H9/IIIB strain); [6]): 3.81 µM; IC50 (HIV-1 (H9/IIIB strain); [7]): 7.12 µM |
| CC(C)OC(=O)[C@@H](C)CNP(=O)(CO[C@H](C)Cn1cnc2c(N)ncnc21)N[C@@H](C)C(=O)OC1CCCCC1 (single isomer, unassigned) [Example 13B] | 0.0342 µM | 0.175 µM | – | – | – |

Source: US9822138B2, “Antiviral beta-amino acid ester phosphodiamide compounds” (Merck Sharp & Dohme Corp., priority 2015, dated 2017)
